# Structures can show the parent of a compound that is named as a salt.
# How the values were obtained:
# [1] = physchem; conditions: water, thermodynamic from solid
# [2] = plasma vs pH 7.6 buffer simulating muscular tissue; cited from earlier work
Structure (SMILES),solubility [1] [µg/mL],solubilization enhancement in plasma compared to pH 7.6 buffer [2] [fold]
"CN(C)C(=O)NC1CCC(CCN2CCN(c3cccc(Cl)c3Cl)CC2)CC1 (stereo in doubt) [cariprazine hydrochloride salt, trans-N-{4-[2-[4-(2,3-dichlorophenyl)piperazine-1-yl]ethyl]cyclohexyl}-N′, N′-dimethylurea hydrochloride]",> 5000,
"CN(C)C(=O)N[C@H]1CC[C@H](CCN2CCN(c3cccc(Cl)c3Cl)CC2)CC1 [cariprazine free base, cariprazine]",6,
Cc1cc2c(s1)Nc1ccccc1N=C2N1CCN(C)CC1.O.O=C(O)c1cc2ccccc2c(Cc2c(O)c(C(=O)O)cc3ccccc23)c1O [olanzapine pamoate],,18

# Source: patent US20230293514A1, “INJECTABLE DEPOT FORMULATION COMPRISING CARIPRAZINE FREE BASE PARTICLES” (Anxo Pharmaceutical Co., Ltd., priority 2022, published 2023)
